Source: article PMC9127750, “Structure-based design of CDC42 effector interaction inhibitors for the treatment of cancer” (Cell reports, 2022)
Values joined by “and” are separate entries in the source; they are usually repeats but may differ in a detail not shown here. Equal values may be shown once.

Test system: WM3248 melanoma cells, 486 antibodies
Assay: Reverse phase protein arrays (RPPA)
Format: cell-based, Human
Details: 5 uM
Text: Pellets were snap frozen in liquid nitrogen and shipped to MD Anderson Cancer Center core RPPA facility for RPPA analysis (Table S5). Three biological replicates for each sample were generated.
Nomenclatures on the RPPA heatmaps: name_of_antibody.species_of_antibody.status_of_antibody. V - antibody validated; C - validation of antibody in progress; Q - antibody nonspecific; E – under evaluation; antibodies raised in M - mouse, G - goat, R - rabbit, or T - rat.

SMILES: CN(C)c1cccc(Nc2cc(-c3ccccc3)nc(C3CCNCC3)n2)c1 [ARN22089, N1,N1-dimethyl-N3-(6-phenyl-2-(piperidin-4-yl)pyrimidin-4-yl)benzene-1,3-diamine]
- RPPA level IGF1R_pY1135_Y1136.R.V (single replicates): 0.923 and 1.035 and 1.147
- RPPA level IGFBP2.R.V (single replicates): 0.536 and 0.864 and 1.227
- RPPA level IGFBP3.M.V (single replicates): 0.749 and 0.955 and 1.168
- RPPA level IGFRb.R.C (single replicates): 0.930 and 1.171
- RPPA level IL.6.R.C (single replicates): 0.941 and 1.064 and 1.146
- RPPA level IMP3.R.C (single replicates): 0.986 and 0.965
- RPPA level INPP4b.R.C (single replicates): 1.116 and 0.899 and 0.832
- RPPA level IR.b.R.C (single replicates): 1.320 and 1.103
- RPPA level IRF.1.R.V (single replicates): 0.717 and 1.139 and 1.144
- RPPA level IRF.3.R.V (single replicates): 0.919 and 1.034
- RPPA level IRS1.R.V (single replicates): 0.981
- RPPA level IRS2.R.C (single replicates): 0.999 and 0.927 and 0.986
- RPPA level JAB1.M.C (single replicates): 1.009 and 0.971
- RPPA level JNK2.R.V (single replicates): 0.702 and 1.165 and 0.800
- RPPA level JNK_pT183_Y185.R.C (single replicates): 0.946 and 1.035 and 1.097
- RPPA level Jagged1.R.V (single replicates): 0.958 and 1.186 and 0.974
- RPPA level Jak2.R.V (single replicates): 0.877 and 1.121
- RPPA level KAP1.R.V (single replicates): 1.023 and 0.961 and 0.759
- RPPA level KEAP1.R.V (single replicates): 1.060 and 0.798 and 0.885
- RPPA level LAD1.R.V (single replicates): 0.906 and 1.221 and 0.985
- RPPA level LC3A.B.R.C (single replicates): 0.962 and 0.690
- RPPA level LCN2.R.V (single replicates): 2.079 and 0.667 and 0.750
- RPPA level LDHA.R.C (single replicates): 1.269 and 0.924 and 0.174
- RPPA level LRP6_pS1490.R.V (single replicates): 0.923 and 1.082 and 1.190
- RPPA level Lasu1.R.V (single replicates): 0.830 and 0.833
- RPPA level Lck.R.V (single replicates): 0.914 and 1.025 and 0.835
- RPPA level Lyn.R.V (single replicates): 0.857 and 0.712
- RPPA level MACC1.R.V (single replicates): 0.983 and 0.952 and 1.126
- RPPA level MAPK_pT202_Y204.R.C (single replicates): 0.962 and 0.989 and 1.287
- RPPA level MCT4.R.V (single replicates): 0.631 and 1.046 and 1.198
- RPPA level MDM2_pS166.R.V (single replicates): 0.981 and 1.059 and 0.658
- RPPA level MEK1.R.V (single replicates): 0.979 and 2.685
- RPPA level MEK1_pS217_S221.R.V (single replicates): 0.968 and 1.488 and 0.918
- RPPA level MEK2.R.V (single replicates): 1.028 and 1.188 and 0.905
- RPPA level MERIT40.R.C (single replicates): 0.976 and 0.913
- RPPA level MERIT40_pS29.R.V (single replicates): 0.986 and 0.944
- RPPA level METTL3.R.V (single replicates): 1.157 and 0.890 and 0.714
- RPPA level MIF.R.C (single replicates): 0.954 and 1.000
- RPPA level MIG6.R.V (single replicates): 1.004 and 0.977
- RPPA level MITF.R.V (single replicates): 1.035 and 0.897
- RPPA level MLH1.M.V (single replicates): 0.967 and 0.818
- RPPA level MLKL.R.V (single replicates): 0.948
- RPPA level MMP2.R.V (single replicates): 1.053 and 0.940 and 0.993
- RPPA level MMP14.R.V (single replicates): 0.806 and 0.852 and 1.235
- RPPA level MR1.M.C (single replicates): 0.985 and 1.126 and 0.989
- RPPA level MRAP.R.C (single replicates): 1.027 and 1.099 and 1.056
- RPPA level MSH2.R.C (single replicates): 0.981 and 0.975 and 0.839
- RPPA level MSH6.R.C (single replicates): 0.974 and 1.034 and 0.768
- RPPA level MSI2.R.C (single replicates): 1.007 and 0.996 and 1.009
- RPPA level MTCO1.M.V (single replicates): 1.026 and 0.959 and 0.846
- RPPA level MTSS1.M.C (single replicates): 0.922 and 1.002
- RPPA level Mcl.1.R.V (single replicates): 0.903 and 1.197 and 1.129
- RPPA level MelanA.R.C (single replicates): 0.929 and 1.064 and 1.083
- RPPA level Melanoma.gp100.R.C (single replicates): 0.903 and 1.116 and 1.163
- RPPA level Merlin.R.C (single replicates): 0.905 and 1.160 and 0.615
- RPPA level Midkine.R.V (single replicates): 1.000 and 0.968 and 1.034
- RPPA level Mitofusin.1.R.V (single replicates): 0.993 and 1.106 and 1.060
- RPPA level Mitofusin.2.R.V (single replicates): 0.878 and 0.979
- RPPA level Mnk1.R.V (single replicates): 1.011 and 1.102
- RPPA level mTOR.R.V (single replicates): 1.085 and 1.120 and 0.844
- RPPA level mTOR_pS2448.R.C (single replicates): 1.164 and 0.821
- RPPA p21.R.C (single replicates): 1.391 and 0.730 and 1.025
- RPPA p27.Kip1.R.C (single replicates): 1.014 and 0.921 and 0.908
- RPPA p27_pT157.R.C (single replicates): 0.998 and 1.050 and 0.780
- RPPA p27_pT198.R.V (single replicates): 0.905 and 1.281 and 1.122
- RPPA p38.MAPK.R.V (single replicates): 1.001 and 1.097
- RPPA p38.MAPK._pT180_Y182.R.V (single replicates): 0.866 and 2.597 and 1.276
- RPPA p38.a.M.V (single replicates): 1.063 and 0.940 and 0.948
- RPPA p44.42.MAPK.R.V (single replicates): 1.135 and 1.025 and 0.778
- RPPA p53.R.C (single replicates): 0.836 and 1.157 and 1.162
- RPPA p70.S6K1.R.V (single replicates): 1.053 and 0.972
- RPPA p70.S6K_pT389.R.V (single replicates): 0.923 and 1.455 and 1.050
- RPPA p90RSK_pT573.R.C (single replicates): 1.055 and 0.692
- RPPA DNMT1.R.V (single samples): 0.942 and 1.005
- RPPA DRP1.R.V (single samples): 1.048 and 0.924 and 1.058
- RPPA DUSP4.R.V (single samples): 1.207
- RPPA DUSP6.R.C (single samples): 1.757
- RPPA DYRK1B.R.C (single samples): 1.023 and 0.961 and 1.055
- RPPA Dvl3.R.V (single samples): 0.942 and 1.023 and 1.077
- RPPA E2F1.R.V (single samples): 0.971 and 1.007 and 0.906
- RPPA E.Cadherin.R.V (single samples): 0.967 and 0.935 and 0.968
- RPPA EGFR.R.V (single samples): 0.950 and 1.055 and 0.936
